From patent US12692223B2, “Phenyl-sulfamoyl-benzoic acid derivatives as ERAP1-modulators” (GREY WOLF THERAPEUTICS LIMITED, priority 2021, dated 2026)

What follows are compounds tested against T1, ERAP1 (Homo sapiens, UniProt Q9NZ08) (assay: ERAP1 mediated hydrolysis of an amide substrate measured in a biochemical system (10-mer inhibition assay)). Conditions: purified ERAP1(37-941)-10His; 10-mer substrate; 23° C. for 1 h; excitation 279 nm, emission 355 nm; read-out: IC50 vs Decapeptide WRVYEKC(Dnp)ALK-acid (where Dnp is Dinitrophenyl maleimide) (10-mer).
T1 construct: Purified ERAP1(37-941)-10His (ERAP1)
Outline: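 Purified ERAP1(37-941)-10His in 25 mM Bis-tris propane, 0.05% HPMC, pH 7.75, with compound, then 100 μM 10-mer WRVYEKC(Dnp)ALK or 240 μM L-AMC added (stock concentrations before 1:1 mixing), 1 h at 23 °C. Fluorescence read at ex 279/em 355 nm (10-mer) or ex 365/em 442 nm (L-AMC); IC50 from 4-parameter fit.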

T1 sequence (Q9NZ08 37-941): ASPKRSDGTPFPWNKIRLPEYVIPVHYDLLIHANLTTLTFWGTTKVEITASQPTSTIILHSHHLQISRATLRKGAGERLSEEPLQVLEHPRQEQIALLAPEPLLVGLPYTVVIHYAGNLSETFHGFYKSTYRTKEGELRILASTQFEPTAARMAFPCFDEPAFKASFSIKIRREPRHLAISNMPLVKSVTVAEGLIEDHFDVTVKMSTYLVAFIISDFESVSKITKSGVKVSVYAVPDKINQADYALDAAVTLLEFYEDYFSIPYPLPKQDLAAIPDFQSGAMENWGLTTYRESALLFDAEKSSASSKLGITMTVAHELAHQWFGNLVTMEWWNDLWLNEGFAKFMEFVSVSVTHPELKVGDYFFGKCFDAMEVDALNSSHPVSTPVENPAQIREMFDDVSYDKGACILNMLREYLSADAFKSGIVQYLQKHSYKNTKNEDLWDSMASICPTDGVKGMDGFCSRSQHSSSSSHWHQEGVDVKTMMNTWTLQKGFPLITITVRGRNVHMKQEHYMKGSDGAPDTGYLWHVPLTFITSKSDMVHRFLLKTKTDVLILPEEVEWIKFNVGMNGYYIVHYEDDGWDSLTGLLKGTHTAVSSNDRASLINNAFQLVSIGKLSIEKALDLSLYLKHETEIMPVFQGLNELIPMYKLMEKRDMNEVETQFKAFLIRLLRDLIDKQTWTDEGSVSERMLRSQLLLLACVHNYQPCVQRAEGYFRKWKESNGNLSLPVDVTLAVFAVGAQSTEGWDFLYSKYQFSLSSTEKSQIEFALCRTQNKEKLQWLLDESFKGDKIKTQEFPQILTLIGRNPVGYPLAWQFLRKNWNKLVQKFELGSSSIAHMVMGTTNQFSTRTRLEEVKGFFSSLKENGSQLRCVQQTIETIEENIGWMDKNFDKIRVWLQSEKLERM

Structure (SMILES)	IC50 [nM]
CC1(C)CCC1Oc1cc(Cl)c(C#N)cc1NS(=O)(=O)c1cc(C(=O)O)ccc1C1CC1 (centres unmarked) [Example 80, 3-(N-(4-chloro-5-cyano-2-(2,2-dimethylcyclobutoxy)phenyl)sulfamoyl)-4-cyclopropylbenzoic acid]	< 1
CO[C@H]1C[C@H](Oc2cc(Cl)c(C#N)cc2NS(=O)(=O)c2cc(C(=O)O)ccc2C2CC2)C1 [Example 95, 3-(N-(4-chloro-5-cyano-2-(trans-3-methoxycyclobutoxy)phenyl)sulfamoyl)-4-cyclopropylbenzoic acid]	> 5
N#Cc1cc(NS(=O)(=O)c2cc(C(=O)O)ccc2C2CC2)c(O[C@H]2C[C@H](O)C2)cc1Cl [Example 96, 3-(N-(4-chloro-5-cyano-2-(trans-3-hydroxycyclobutoxy)phenyl)sulfamoyl)-4-cyclopropylbenzoic acid]	< 1
CC1(C)CC(C)(C)C1Oc1cc(Cl)c(C#N)cc1NS(=O)(=O)c1cc(C(=O)O)ccc1C1CC1 [Example 101, 3-(N-(4-chloro-5-cyano-2-(2,2,4,4-tetramethylcyclo-butoxy)phenyl)sulfamoyl)-4-cyclopropylbenzoic acid]	> 5
CO[C@@H]1CCC[C@H]1Oc1cc(Cl)c(C#N)cc1NS(=O)(=O)c1cc(C(=O)O)ccc1C1CC1 [Example 109, 3-(N-(4-chloro-5-cyano-2-(((1R,2R)-2-methoxycyclopentyl)oxy)phenyl)sulfamoyl)-4-cyclopropylbenzoic acid]	< 1
N#Cc1cc(NS(=O)(=O)c2cc(C(=O)O)ccc2C2CC2)c(O[C@H]2C[C@@H](O)C2)cc1Cl [Example 112, 3-(N-(4-chloro-5-cyano-2-(cis-3-hydroxycyclobutoxy)phenyl)sulfamoyl)-4-cyclopropylbenzoic acid]	> 5
CC1(C)CCC[C@H]1Oc1cc(F)c(-n2cnnn2)cc1NS(=O)(=O)c1cc(C(=O)O)ccc1C1CC1 [Example 125, (R)-4-cyclopropyl-3-(N-(2-((2,2-dimethylcyclopentyl)oxy)-4-fluoro-5-(1H-tetrazol-1-yl)phenyl)sulfamoyl)benzoic acid]	< 1
N#Cc1cc(NS(=O)(=O)c2cc(C(=O)O)ccc2C2CC2)c(OC2CCC(F)(F)C2)cc1Cl (centres unmarked) [Example 134, 3-(N-(4-chloro-5-cyano-2-((3,3-difluorocyclopentyl)oxy)phenyl)sulfa-moyl)-4-cyclopropylbenzoic acid]	< 1

Continued, values first:

IC50 [nM]	Structure (SMILES)
< 1	N#Cc1cc(NS(=O)(=O)c2cc(C(=O)O)ccc2C2CC2)c(OCC23CC(C2)C3)cc1Cl [Example 76, 3-(N-(2-(bicyclo[1.1.1]pentan-1-ylmethoxy)− 4-chloro-5-cyanophenyl)sulfamoyl)-4-cyclopropylbenzoic acid]
< 1	N#Cc1cc(NS(=O)(=O)c2cc(C(=O)O)ccc2C2CC2)c(OC2CCC23CCC3)cc1Cl (centres unmarked) [Example 77, 3-(N-(4-chloro-5-cyano-2-(spiro[3.3]heptan-1-yloxy)phenyl)sulfamoyl)-4-cyclopropylbenzoic acid]
< 1	C[C@@H](Oc1cc(Cl)c(C#N)cc1NS(=O)(=O)c1cc(C(=O)O)ccc1C1CC1)C1CCC1 [Example 78, (R)-3-(N-(4-chloro-5-cyano-2-(1-cyclobutylethoxy)phenyl)sulfamoyl)-4-cyclopropylbenzoic acid]
< 1	N#Cc1cc(NS(=O)(=O)c2cc(C(=O)O)ccc2C2CC2)c(OCC23C4C5C6C4C2C6C53)cc1Cl (centres unmarked) [Example 79, 3-(N-(4-chloro-2-(cuban-1-ylmethoxy)-5-cyanophenyl)sulfamoyl)-4-cyclopropylbenzoic acid]
< 1	CC1(Oc2cc(Cl)c(C#N)cc2NS(=O)(=O)c2cc(C(=O)O)ccc2C2CC2)CCCC1 [Example 81, 3-(N-(4-chloro-5-cyano-2-((1-methylcyclopentyl)oxy)phenyl)sulfamoyl)-4-cyclopropylbenzoic acid]
< 1	N#Cc1cc(NS(=O)(=O)c2cc(C(=O)O)ccc2C2CC2)c(OCC2(C#N)CCC2)cc1Cl [Example 82, 3-(N-(4-chloro-5-cyano-2-((1-cyanocyclobutyl)methoxy)phenyl)sulfamoyl)-4-cyclopropylbenzoic acid]
< 1	N#Cc1cc(NS(=O)(=O)c2cc(C(=O)O)ccc2C2CC2)c(OC2CCCC2(F)F)cc1Cl (centres unmarked) [Example 83, 3-(N-(4-chloro-5-cyano-2-((2,2-difluorocyclopentyl)oxy)phenyl)sulfamoyl)-4-cyclopropylbenzoic acid]
< 1	COC1(COc2cc(Cl)c(C#N)cc2NS(=O)(=O)c2cc(C(=O)O)ccc2C2CC2)CCC1 [Example 87, 3-(N-(4-chloro-5-cyano-2-((1-methoxycyclobutyl)methoxy)phenyl)sulfamoyl)-4-cyclopropylbenzoic acid]
< 1	N#Cc1cc(NS(=O)(=O)c2cc(C(=O)O)ccc2C2CC2)c(O[C@@H]2CCC[C@H]2O)cc1Cl [Example 97, 3-(N-(4-chloro-5-cyano-2-(((1R,2R)−2-hydroxycyclopentyl)oxy)phenyl)sulfamoyl)-4-cyclopropylbenzoic acid]
